{"source": "patent US20260283996A1", "about": "“DECANOIC ACID AND ITS COMPOSITIONS FOR USE IN THE PREVENTION AND/OR TREATMENT OF PEROXISOMAL DISORDERS” (SOCIÉTÉ DES PRODUITS NESTLÉ S.A., priority 2023, published 2026)", "assay_type_in_all_cases": "cell-based", "key": {"[1]": {"system": "Pex11a", "experiment": "expression of Pex11a in SH-SY5Y cells", "settings": "250 μM, 6 days (FIG. 1B)", "procedure": "(§1) SH-SY5Y cells were stored frozen and cells with passage numbers between 20 and 24 were utilized. When required, SH-SY5Y cells were thawed at 20-25° C. and quickly seeded at a density of 13.3×10^3 cell/cm^2 in 75 cm^2 flasks. SH-SY5Y cells were then grown in media containing 1:1 DMEM/F-12+100 mL/L FBS+10 mL/L I-glutamine at +37° C. and 5% CO2. SH-SY5Y cells were exposed to 250 μM decanoic acid (C10) or octanoic acid (C8) for 6 days.\n(§2) To assess effects upon peroxisomal content and function, the following parameters were studied; (a) activity of the peroxisomal marker enzyme, acyl CoA oxidase, (b) expression of Pex11a, a gene associated with peroxisomal biogenesis and (c) evaluation of peroxisomal fatty acid beta oxidation by monitoring the chain shortening of a very long chain fatty acid, C22, to C18, C16 and C14."}, "[2]": {"system": "SH-SY5Y cells", "experiment": "peroxisomal fatty acid beta oxidation (chain shortening of C22 to C18, C16 and C14) in SH-SY5Y cells", "settings": "250 μM, 6 days, chain shortening of C22 to C18, C16 and C14 (FIG. 1C)", "procedure": "as §1, §2"}, "[3]": {"system": "acyl CoA oxidase", "experiment": "acyl CoA oxidase activity in SH-SY5Y cells", "settings": "250 μM, 6 days (FIG. 1A)", "procedure": "as §1, §2"}}, "data": [{"compound": "CCCCCCCCCC(=O)O", "note": "[C10, Decanoic acid]", "values": [{"measurement": "Pex11a expression", "setting": "[1]", "result": "increased Pex11a"}, {"measurement": "capacity to perform peroxisomal beta oxidation", "setting": "[2]", "result": "increased capacity to perform peroxisomal beta oxidation"}, {"measurement": "acyl CoA oxidase activity", "setting": "[3]", "result": "increase in acyl CoA oxidase activity"}]}]}
